# From PubChem BioAssay AID2696 (Johns Hopkins Ion Channel Center, 2010)
# Target: Short transient receptor potential channel 6 (Mus musculus) (UniProt Q61143)
# Test: TRPC6 inhibitor potency, dose response, cell-based, mouse TRPC6, HEK293, membrane potential (AID 2696)
# Conditions: TRPC6-expressing HEK293 cells, membrane potential dye fluorescence, acetylcholine-stimulated
# Sequence of Short transient receptor potential channel 6 (Mus musculus) (Q61143 whole entry, looked up): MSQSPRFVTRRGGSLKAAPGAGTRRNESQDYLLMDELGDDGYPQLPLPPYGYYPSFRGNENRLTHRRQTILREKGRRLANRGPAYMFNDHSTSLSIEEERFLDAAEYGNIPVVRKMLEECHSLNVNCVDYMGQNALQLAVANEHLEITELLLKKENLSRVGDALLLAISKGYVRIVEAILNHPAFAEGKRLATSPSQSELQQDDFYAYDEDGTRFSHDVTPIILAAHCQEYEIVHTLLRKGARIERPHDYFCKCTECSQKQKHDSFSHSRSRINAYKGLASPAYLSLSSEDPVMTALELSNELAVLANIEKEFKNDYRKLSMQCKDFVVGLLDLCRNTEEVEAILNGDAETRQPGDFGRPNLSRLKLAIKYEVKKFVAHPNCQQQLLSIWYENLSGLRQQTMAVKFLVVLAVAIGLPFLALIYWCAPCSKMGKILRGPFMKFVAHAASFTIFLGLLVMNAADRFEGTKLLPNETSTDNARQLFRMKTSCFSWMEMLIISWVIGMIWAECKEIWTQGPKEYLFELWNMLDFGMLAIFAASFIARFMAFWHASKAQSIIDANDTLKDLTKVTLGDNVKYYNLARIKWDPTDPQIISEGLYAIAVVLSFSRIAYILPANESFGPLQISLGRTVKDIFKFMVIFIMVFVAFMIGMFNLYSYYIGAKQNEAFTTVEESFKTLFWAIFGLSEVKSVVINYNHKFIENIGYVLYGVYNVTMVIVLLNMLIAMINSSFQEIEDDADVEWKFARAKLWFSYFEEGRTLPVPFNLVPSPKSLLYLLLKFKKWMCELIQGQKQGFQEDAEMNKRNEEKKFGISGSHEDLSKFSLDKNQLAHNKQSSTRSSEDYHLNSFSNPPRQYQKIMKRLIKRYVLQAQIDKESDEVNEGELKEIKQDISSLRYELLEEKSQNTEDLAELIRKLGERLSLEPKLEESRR
row,SMILES,IC50
1,COC(=O)c1[nH]c2ccccc2c1NC(=O)CN1CCN(C/C=C/c2ccccc2)CC1,50.1 µM
2,CN(C)CCOC(=O)C1(c2ccccc2)CCCC1,44.7 µM
3,CN(C)CCC(=O)N1c2ccccc2Sc2ccc(Cl)cc21,8.91 µM
4,CC(C)N1CCC2(CC1)N=C(c1ccc3c(c1)OCO3)CC(c1cc(Cl)ccc1O)N2 (configuration not stated),70.8 µM
5,O=c1cc(C(F)(F)F)[nH]c2c(C(F)(F)F)cccc12,25.1 µM
6,C[N+]12CCC(CC1)C(=C(c1ccccc1)c1ccccc1)C2,4.47 µM
7,O=C1Nc2ccccc2OC1CC(=O)N1CCN(c2cccc(C(F)(F)F)c2)CC1 (configuration not stated),79.4 µM
8,CCN(CC)CCn1c(=N)n(CCOc2ccccc2)c2ccccc21,35.5 µM
9,Cc1ccc(Oc2ccc(NC(=O)Cn3ccsc3=N)cc2)cc1,70.8 µM
10,CCN(CC)CCC#CC(O)(c1ccccc1)c1ccccc1,14.1 µM
11,c1ccc2c(c1)CC1CNCc3cccc(c31)S2 (configuration not stated),70.8 µM
12,CC1CCCN1CC#CC(O)(c1ccccc1)c1ccccc1 (configuration not stated),11.2 µM
13,S=c1[nH]nc(Cc2ccccc2)n1Cc1ccco1,39.8 µM
14,C[C@H]1OC[C@@H](C[N+](C)(C)C)O1,4.47 µM
15,OC(C#CCN1CCCCC1)(c1ccccc1)c1ccccc1,1.12 µM
16,Cc1nnsc1C(=O)N/N=C/c1ccc2ccccc2c1O,8.91 µM
17,CN1C2CCC1CC(OC(c1ccccc1)c1ccccc1)C2 (configuration not stated),0.32 µM
18,NCCCC(=O)N1c2ccccc2Sc2ccccc21,44.7 µM
19,CCCCn1c(-c2ccc([N+](=O)[O-])cc2)n[nH]c1=S,6.31 µM
20,O=C(Nc1ccccc1)Nc1ncc([N+](=O)[O-])s1,35.5 µM
21,CC1CCN(Cc2ccc(NC(=O)CC3Oc4ccccc4NC3=O)cc2)CC1 (configuration not stated),2.24 µM
22,Cn1c(=O)[nH]c(=O)c2c1nc(N1CCCCCC1)n2CCN1CCCCCC1,39.8 µM
23,COc1ccc(OC)c2sc(N(CCN(C)C)C(=O)c3ccc4ccccc4c3)nc12,70.8 µM
24,COC(=O)c1ccc(NC2(C#N)C(=O)Nc3ccccc32)cc1 (configuration not stated),50.1 µM

row,SMILES,IC50
1,CN(CCOC(=O)C1c2ccccc2Oc2ccccc21)C(C)(C)C,0.89 µM
2,CC(C)C(O)(C#CCN1CCCCCC1)c1ccccc1 (configuration not stated),44.7 µM
3,C=C(C)c1cccc(C(C)(C)NC(=O)NCCN(CC)CC)c1,28.2 µM
4,OC(C#CCN1CCCCCC1)(c1ccccc1)c1cccnc1 (configuration not stated),39.8 µM
5,Cc1cccn2c(=O)c3cc(C(=O)NCc4ccco4)c(=N)n(C(C)C)c3nc12,44.7 µM
6,COc1ccccc1OCCNCC(O)COc1cccc2[nH]c3ccccc3c12 (configuration not stated),44.7 µM
7,CN1CCC(OC(=O)C2c3ccccc3Oc3ccccc32)CC1,0.71 µM
8,CCN(CC)c1ccc2cc(C(N)=O)/c(=N\NC(=O)c3ccncc3)oc2c1,50.1 µM
9,Cc1cc(C)c2nc(C)cc(Nc3ccc(C(=O)N4CCOCC4)cc3)c2c1,79.4 µM
10,C#CC[N+]1(C)[C@@H]2CC[C@H]1CC(OC(=O)C(CO)c1ccccc1)C2 (some centres not stated),0.28 µM
11,CN1CCN(CCC(C#N)(c2ccccc2)c2ccccc2)CC1,39.8 µM
12,COc1ccc(C(=O)C2CCCN(Cc3cccn3-c3ccccn3)C2)cc1F (configuration not stated),79.4 µM
13,OC(Cn1c2ccccc2c2ccccc21)C[n+]1cccc2ccccc21 (configuration not stated),35.5 µM
14,C[N+]1(C)[C@@H]2CC(OC(=O)[C@H](CO)c3ccccc3)C[C@H]1[C@@H]1O[C@@H]12 (some centres not stated),0.03 µM
15,CCN(CC)CCNC(=O)c1ccc(NC(=O)c2cccc(S(=O)(=O)Nc3ccc(C)cc3)c2)cc1,31.6 µM
16,COCC(C)NC(=O)c1ccc(CN2CCc3ccccc3C2)cc1 (configuration not stated),44.7 µM
17,Cc1onc(-c2c(F)cccc2Cl)c1C(=O)NC(=S)Nc1c(C)n(C)n(-c2ccccc2)c1=O,39.8 µM
18,C[N+](C)(C)CCOC(=O)C1(c2ccccc2)CCCC1,8.91 µM
19,S=C1N(c2ccccc2)C(c2ccc(Br)cc2)N2CCCN12 (configuration not stated),17.8 µM
20,Nc1nc(N2CCN(C/C=C/c3ccccc3)CC2)nc2ccccc12,44.7 µM
21,CCN(CC)CC(=O)N1c2ccccc2Sc2ccc(Cl)cc21,44.7 µM
22,Nc1c2c(nc3ccccc13)N(C1CCCCC1)CC2,70.8 µM
23,Cn1c(=O)c2c(nc(SCCN3CCCCC3)n2Cc2ccccc2)n(C)c1=O,70.8 µM
